From US20260193531A1, “LIQUID WEIGHTING AGENTS FOR OIL-BASED FLUIDS” (Albemarle Corporation, priority 2022, published 2026)
Like-named read-outs stand apart in the source and are kept apart here.

Key:
[1] = Density of the esters and ester mixtures; type: physicochemical
[2] = system: Leptocheirus plumulosus; type: in vivo; settings: for Quantity: estimate
Protocol: Sediment toxicity testing. Sediment toxicity testing was according to U.S. Environmental Protection Agency Method 1644, the “Method for Conducting a Sediment Toxicity Test with Leptocheirus plumulosus and Non-Aqueous Drilling Fluids or Synthetic-Based Drilling Muds”. The testing procedure was as follows: • 1. Leptocheirus plumulosus amphipods were cultured and maintained in natural sediment at 23±2° C. before being exposed to a test sample. • 2. A sample contained sediment, synthetic seawater, and the substance being tested. Five samples of each substance were prepared and tested, the sample having concentrations of 100, 200, 400, 800, and 1600 mg/kg of the substance to be tested. • 3. For each sample, a 1-liter jar was prepared with approximately 150 mL of formulated sediment with 600 mL of synthetic sea water, and the substance to be tested. • 4. In each test, 20 Leptocheirus plumulosus amphipods were exposed to the sample at 20±1° C. for 10 days in the 1-L closed jar; the Leptocheirus plumulosus amphipods were not fed after the test was initiated. • 5. At the end of 10 days, the Leptocheirus plumulosus amphipods remaining alive were counted and an LC50 value was predicted based on those results.

[3] = Closed-bottle anaerobic biodegradation test, EPA Method 1647 (275 days); settings: Duration 275 days
Protocol: Anaerobic biodegradation testing. […] For each substance, four samples were run. Each test was compared to separate standard samples containing ethyl oleate, squalane, 1-hexadecene, C16-18 internal olefin, or no additive. To pass the test, the sample must have more net biodegradation than the C16-18 internal olefin. The testing procedure was as follows: • 1. Each test mixture was prepared by combining with 2000 mg carbon (sample) per kg of natural sediment; 30 grams of the mixture were used for each sample run. The carbon content of the sample was measured before mixing the sample with the sediment. […] After a bottle was capped, a nitrogen sparge was employed to remove air in the headspace of the bottle before incubation was started. • 3. During the incubation period, the sample is kept at a constant temperature of 29±1° C. • 4. […] Each sample was brought to ambient temperature to make each measurement. Gas production was measured with a pressure gauge, and barometric pressure was also measured at the time of measurement to make volume corrections.

[4] = Miscibility with a base oil (solid formation or phase separation after one week); type: physicochemical; settings: 50:50 weight mixture with a base oil; for miscibility: room temperature
Protocol: Some of the liquid weighting agents of this invention are usable as oil-miscible weighting agents (OMWA). As used throughout this document, the term “miscible” means that emulsions and/or separate phases are not observed in a 50:50 weight mixture of one or more of the liquid weighting agents of this invention (total of 50 wt %) and an oil (50 wt %) after the mixture has been kept at 0° C. for one week. Similarly, as used throughout this document, the term “partially miscible” means that emulsions and/or separate phases are not observed in a 50:50 weight mixture of one or more of the liquid weighting agents of this invention (total of 50 wt %) and an oil (50 wt %) after the mixture has been kept at room temperature for one week.
The tribromoneopentyl esters were each combined with a base oil in a 50:50 weight mixture.
Some of the tribromoneopentyl monoesters were tested in pairs in a base oil in a 25:25:50 weight ratio, with 25 wt % of each tribromoneopentyl monoester and 50 wt % of the base oil.
The dibromoallyl esters were each combined with a base oil in a 50:50 weight mixture.
Several mixtures of a monoester containing a terminal alkene moiety were tested in a base oil in a 50:50 weight mixture.
Several mixtures of a tribromoneopentyl monoester and a monoester containing a terminal alkene moiety were tested in a base oil in a 25:25:50 weight ratio, with 25 wt % of the tribromoneopentyl monoester, 25 wt % of 2,3-dibromoprop-2-en-1-yl propanoate, and 50 wt % of the base oil.

[5] = sediment toxicity test, Pass/Fail

Compound	Density [1]	other results
O=C(CBr)OCC(CBr)(CBr)COC(=O)CBr [2,2-bis(bromomethyl)1,3-propanediol-1,3-bis-(bromoacetate)]	2.13 g/mL	–
CC(C)C(=O)OCC(CBr)(CBr)COC(=O)C(C)C [2,2-bis(bromomethyl)1,3-propanediol-1,3-di(2-methylpropanoate)]	1.46 g/mL	–
CCCCCC(=O)OCC(CBr)(CBr)COC(=O)CCCCC [2,2-bis(bromomethyl)1,3-propanediol-1,3-dihexanoate]	1.28 g/mL	Result ([2]; in vivo): Pass; Amount biodegradation [3]: 7.36%
CCC(=O)OCC(CBr)(CBr)COC(=O)CC [2,2-bis(bromomethyl)1,3-propanediol-1,3-dipropionate]	1.62 g/mL	–
CC(C)C(=O)OCC(Br)=CBr [2,3-dibromoallyl 2-methylpropanoate]	1.70 g/mL	solid formation or phase separation ([4]; kept at −18° C. for one week): no solid formation or phase separation was observed; miscibility [4]: miscible
CC(=O)OCC(Br)=CBr [2,3-dibromoallyl acetate]	1.83 g/mL	solid formation or phase separation ([4]; 0° C. for one week): no solid formation or phase separation was observed
CCC(=O)OCC(Br)=CBr [2,3-dibromoallyl propionate]	1.79 g/mL	solid formation or phase separation ([4]; kept at −18° C. for one week): no solid formation or phase separation was observed; miscibility [4]: miscible
CCC(=O)OC/C(Br)=C(\Br)COC(=O)CC [(2E)-2,3-dibromobut-2-ene-1,4-diyl bis(propanoate)]	1.59 g/mL	Result ([2]; in vivo): Pass; Amount biodegradation [3]: 54.64%
CC(C)C(=O)OCC(CBr)(CBr)CBr [tribromoneopentyl 2-methylpropanoate, 3-bromo-2,2-bis(bromomethyl)propyl 2-methylpropanoate]	1.79 g/mL	Result [2, 5]: Fail; Quantity ([2]; sediment toxicity test): ~243 mg/kg (estimate)
CCCC(=O)OCC(CBr)(CBr)CBr [tribromoneopentyl butyrate, 3-bromo-2,2-bis(bromomethyl)propyl butyrate]	1.79 g/mL	solid formation or phase separation ([4]; 0° C. for one week): no solid formation or phase separation was observed
CCCCCC(=O)OCC(CBr)(CBr)CBr [tribromoneopentyl hexanoate, 3-bromo-2,2-bis(bromomethyl)propyl hexanoate]	1.57 g/mL	–
CC(C)CC(=O)OCC(CBr)(CBr)CBr [tribromoneopentyl isovalerate, 3-bromo-2,2-bis(bromomethyl)propyl isovalerate]	1.73 g/mL	–
CCC(=O)OCC(CBr)(CBr)CBr [tribromoneopentyl propionate, 3-bromo-2,2-bis(bromomethyl)propyl propionate]	1.87 g/mL	solid formation or phase separation ([4]; 0° C. for one week): phase separation was observed; solid formation or phase separation ([4]; kept at −18° C. for one week): phase separation was observed
CCCCC(=O)OCC(CBr)(CBr)CBr [tribromoneopentyl valerate, 3-bromo-2,2-bis(bromomethyl)propyl pentanoate]	1.72 g/mL	Result [2, 5]: Pass; Quantity ([2]; sediment toxicity test): ~363 mg/kg (estimate)

More lines, main results first:

Density [1]	Compound	other results
1.49 g/mL	CC(C)C(=O)OC/C(Br)=C(\Br)COC(=O)C(C)C [(2E)-2,3-dibromobut-2-ene-1,4-diyl bis(2-methylpropanoate)]	–
1.94 g/mL	CCC(Br)C(=O)OC/C(Br)=C(\Br)COC(=O)C(Br)CC (centres unmarked) [(2E)-2,3-dibromobut-2-ene-1,4-diyl bis(2′-bromobutyrate)]	–
1.74 g/mL	O=C(CBr)OC/C=C\COC(=O)CBr [(2Z)-but-2-ene-1,4-diyl bis(bromoacetate)]	–
1.62 g/mL	CC(C)C(=O)OCc1cc(Br)cc(Br)c1 [(3,5-dibromophenyl)methyl 2-methylpropanoate]	–
1.76 g/mL	CC(=O)OCc1cc(Br)cc(Br)c1 [(3,5-dibromophenyl)methyl acetate]	–
2.06 g/mL	O=C(CBr)OCc1cc(Br)cc(Br)c1 [(3,5-dibromophenyl)methyl bromoacetate]	–
1.62 g/mL	CCCC(=O)OCc1cc(Br)cc(Br)c1 [(3,5-dibromophenyl)methyl butyrate]	Amount biodegradation [3]: 25.1%
1.56 g/mL	CCCCC(=O)OCc1cc(Br)cc(Br)c1 [(3,5-dibromophenyl)methyl pentanoate]	–
1.68 g/mL	CCC(=O)OCc1cc(Br)cc(Br)c1 [(3,5-dibromophenyl)methyl propionate]	–
1.95 g/mL	O=C(CBr)OCC(COC(=O)CBr)OC(=O)CBr [propane-1,2,3-triyl tris (bromoacetate)]	–
